Measured values taken from article PMC4593031, “Azobenzene Modified Imidacloprid Derivatives as Photoswitchable Insecticides: Steering Molecular Activity in a Controllable Manner” (Scientific Reports, 2015).
“And” between values parts separate entries of the source, which are not always exact repeats. Equal entries are not always repeated. Where two headings read alike, the source gives them in different places.

Assays:
[1] = UV/Vis absorption of photoisomers; assay type: physicochemical; conditions: for λmax n-π* (cis): cis isomer; for λmax π-π* (trans): trans isomer
Text: The photoswitchable behaviors of AMIs at room temperature were characterized by UV/Vis absorption, NMR spectroscopy and HPLC studies. […] Upon irradiation with ultraviolet (365 nm), a gradual intensity decrease at 327 nm and increase at 410–500 nm was detected corresponding to the π–π* and n–π* transition band, respectively (Fig. 3B). The reverse spectral changes were observed upon irradiation at 436 nm (data not shown). All the other compounds gave the similar spectral changes when illuminated with light. The proportions of E/Z isomer at the photostationary states before and after irradiation were determined by HPLC analysis (Table 1). Most of the compounds could produced more than 80% cis isomers upon irradiation. […] The photoisomerization of AMI-10 was further identified by ^1H NMR spectroscopy with the notable appearance of two double peaks at δ 7.25 and 6.85, respectively (Supplementary Fig. S1 online).
Varian Cary 100 UV-vis spectrophotometer was used for obtaining absorption (UV-Vis) spectra. The solutions of compounds were irradiated with a UV lamp (365 nm). The cis to trans photoisomeriation were performed with a light-emitting diode (blue light, 450 nm). The corresponding UV-Vis spectrums were collected in supplmentary files. The photostationary states were determined by high performance liquid chromatography (HPLC) measurements and the trans/cis ratios were calculated at the isosbestic points.

[2] = system: house fly (Musca domestica); assay: Insecticidal test for house fly by intrathoracic injection; assay type: in vivo; conditions: for Musca domestica in vivo LD50: intrathoracic injection, mortality at 24 h
Procedure: The ability of azobenzene to regulate insecticidal activities remains unexplored. To better understand the activity changes induced by light, the efficacy before and after irradiation was tested by leaf-dip method for cowpea aphid (Aphis craccivora) and intrathoracic injection against house fly (Musca domestica)[46][47]. Against cowpea aphid, all the isomers had low activity and no significant difference was observed between two photo isomers (Supplementary Table S1 online). We attribute this observation to the poor solubility at the testing concentrations.
Thus, injection of chemicals into house fly was employed to evaluate their intrinsic activity (Table 2). House fly is a most commonly used indicator for both in vitro and in vivo insecticidal activity. Replacement of chloropyridinyl in IMI with AB leads to a deleterious effect on in vivo activity to house fly as exemplified by analogues AMI-1, 2 and 5 with LD50 values of more than 10 μg/g irrespective of irradiation or not. […] No obvious difference was observed between the trans and cis form of AMI-9.
House fly adults were anesthetized with carbon dioxide for 10 min and then were treated with the AMIs dissolved in distilled water or 10% DMSO aqueous solution by intrathoracic injection (0.4 μL for each fly). Twenty flies were treated for each dosage with duplicate samples. The mortality rates were counted twenty-four hours after treatment. Each treatment had three repetitions and the data subjected to probit analysis.

house fly brain nAChR = assay: nAChR binding in vitro, competitive inhibition of [3H]NMI binding; conditions: 1 nM [3H]NMI, house fly head membranes, read-out: Musca domestica in vitro IC50, [3H]NMI
Procedure: Tritium labeled nitromethylene analogue of IMI ([^3H]NMI) is a unique reporter for monitoring nAChR binding not only in vitro but also in vivo due to its extremely high binding potency. Here, the in vitro interaction of AMIs with house fly brain nAChR was measured by competitive inhibition of [^3H]NMI binding (Table 2). Photoisomers of AMI-1, 2, 5, and 6 had very poor ability to displacing [^3H]NMI binding (IC50 > 2000 nM) leading to difficulty for difference judgement. […] A 4-fold difference was achieved on AMI-4 and 10 upon photoirradiation. Compounds AMI-9 or AMI-10 have some similarities with the bis-IMI derivatives disclosed by Kagabu et al.[49][50][51]. […] Among various spacers investigated, the heptamethylene or furan-2,5-dimethylene was the optimal bridge. The N-PhN=NPh-N lengths for trans and cis isomers of AMI-9 or AMI-10 are about 12.29 Ǻ and 6.82 Ǻ or 12.59 Ǻ and 8.14 Ǻ, respectively. While for the bis-IMI linked by heptamethylene, the distance is 9.96 Ǻ, close to that of cis-AMI-10. The shorter or longer distance of the linker may decrease the activity. Furthermore, the lack of heteroatom in the AB linker which is important for stabilizing the interaction with the receptor further attenuated the activity.
House fly heads were collected after the fly adults frozen with liquid nitrogen were broken into body parts. Then the heads were homogenized in 0.1 mM EDTA, 0.32 M sucrose and 100 mM sodium phosphate (pH 7.4). The homogenate was treated by filtering through four layers of 64-μm mesh nylon screen. After centrifuging at 500 g for 30 min, the supernatant was collected and again filtered through using the method above. After centrifuging at 25,000 g for 60 min at 4 °C, the pellet was resuspended in binding buffer (mixture of 50 mM sodium chloride and 10 mM sodium phosphate, pH 7.4). These brain membranes were used fresh or stored for up to several weeks at −80 °C. Then 1 nM [^3H]NMI, varying concentrations of neonicotinoids and 300–500 μg membrane protein in a final volume of 500 μL was incubated at 22 °C for 60 min. The reaction mixture was filtered through Whatman GF/B glass-fiber filters prewetted by binding buffer using a Brandel M-24R Harvester (Gaithersburg, MD) to quantitate the bound [^3H]NMI, followed by two rinses each with binding buffer (5 mL) and final liquid scintillation. Nonspecific binding was determined with unlabeled NMI (20 μM). Specific binding was about 80–90% of total binding. The percentage inhibition was determined from two (compounds AMI-1, AMI-2, AMI-5, AMI-6 and azobenzene whose activities were extremely low) or three separate experiments each with triplicate samples. Half maximal inhibitory concentration (IC50) were determined by nonlinear regression analysis for logarithm of inhibitor concentration versus probit percentage inhibition.

[3] = Photoswitching cycles / constant irradiation (fatigue resistance); assay type: physicochemical; conditions: multiple cycles of photoisomerization or constant irradiation at 365 nm for 1 h

Molecule | λmax n-π* (cis) [1] [nm] | λmax π-π* (trans) [1] [nm] | Musca domestica in vivo LD50 ([2]; irradiated) | Musca domestica in vivo LD50 ([2]; nonirradiated) | IC50 (house fly brain nAChR; irradiated) [nM] | IC50 (house fly brain nAChR; nonirradiated) [nM] | photo bleaching or photo-oxidation [3] | poisoning sign in house fly ([2]; under the tested concentrations) | Musca domestica in vivo LD50 ([2]; irradiated, listed as 5) | Musca domestica in vivo LD50 ([2]; nonirradiated, listed as 5)
2-chloro-5-(((E)-2-(nitromethylene)-3-(2-((E)-phenyldiazenyl)benzyl)imidazolidin-1-yl)methyl)pyridine [AMI-6] | 433 | 322 | >10 µg/g | >10 µg/g | > 2000 | > 2000 |  |  |  | 
O=[N+]([O-])/N=C1\N(Cc2ccc(Cl)nc2)CCN1Cc1cccc(/N=N/c2ccccc2)c1 [AMI-3] | 431 | 317 | 4.4 ± 0.7 µg/g | 3.9 ± 0.5 µg/g | 1140 ± 106 | 250 ± 22 |  |  |  | 
O=[N+]([O-])/N=C1/N(Cc2ccc(/N=N/c3ccccc3)cc2)CCN1Cc1ccc(Cl)nc1 [AMI-4] | 433 | 322 | 9.2 ± 1.6 µg/g | 6.5 ± 1.0 µg/g | 1220 ± 98 | 818 ± 92 |  |  |  | 
O=[N+]([O-])/N=C1\N(Cc2ccc(Cl)nc2)CCN1Cc1cccc(/N=N/c2cccc(CN3CCN(Cc4ccc(Cl)nc4)/C3=N\[N+](=O)[O-])c2)c1 [AMI-9] | 429 | 319 | 3.0 ± 0.6 µg/g | 5.1 ± 0.8 µg/g | 1340 ± 154 | 1160 ± 141 |  |  |  | 
O=[N+]([O-])N=C1N(Cc2ccc(N=Nc3ccc(CN4CCN(Cc5ccc(Cl)nc5)C4=N[N+](=O)[O-])cc3)cc2)CCN1Cc1ccc(Cl)nc1 [AMI-10] | 434 | 325 | 0.5 µg/g and 0.5 ± 0.08 µg/g | 2.8 µg/g and 2.8 ± 0.4 µg/g | 112 ± 13 | 466 ± 55 | No photo bleaching or photo-oxidation could be observed |  |  | 
O=[N+]([O-])NC1=NCCN1Cc1ccc(Cl)nc1 [IMI, imidacloprid] |  |  | 0.05 ± 0.01 µg/g | 0.05 ± 0.01 µg/g | 28.8 ± 4 | 28.8 ± 4 |  |  |  | 
c1ccc(/N=N/c2ccccc2)cc1 [azobenzene] |  |  | >10 µg/g | >10 µg/g | > 2000 | > 2000 |  | no significant poisoning sign was detected |  | 
(E)-1-(3-(((E)-2-(nitromethylene)imidazolidin-1-yl)methyl)phenyl)-2-(3-(((Z)-2-(nitromethylene)imidazolidin-1-yl)methyl)phenyl)diazene [AMI-7] | 432 | 321 | 5.3 ± 1.0 µg/g | 7.9 ± 1.1 µg/g | 1730 ± 135 | 1860 ± 151 |  |  |  | 
(Z)-2-(nitromethylene)-1-(2-((E)-phenyldiazenyl)benzyl)imidazolidine [AMI-5] | 436 | 320 | >10 µg/g | >10 µg/g | > 2000 | > 2000 |  |  | more than 10 μg/g | more than 10 μg/g
